For 26 compounds, IC50 results are on record in patent US10894784B2, “Heteroarylbenzimidazole compounds” (BAYER PHARMA AKTIENGESELLSCHAFT, priority 2015, dated 2021).

The assay deals with TBK1 (Homo sapiens (Human), UniProt Q9UHD2). Description: TBK1 low ATP kinase assay (in vitro assay 1). In kind it is biochemical. To be noted: in vitro assay 1, read-out: TBK1 low ATP kinase assay IC50.
Sequence of TBK1 (Q9UHD2 whole entry): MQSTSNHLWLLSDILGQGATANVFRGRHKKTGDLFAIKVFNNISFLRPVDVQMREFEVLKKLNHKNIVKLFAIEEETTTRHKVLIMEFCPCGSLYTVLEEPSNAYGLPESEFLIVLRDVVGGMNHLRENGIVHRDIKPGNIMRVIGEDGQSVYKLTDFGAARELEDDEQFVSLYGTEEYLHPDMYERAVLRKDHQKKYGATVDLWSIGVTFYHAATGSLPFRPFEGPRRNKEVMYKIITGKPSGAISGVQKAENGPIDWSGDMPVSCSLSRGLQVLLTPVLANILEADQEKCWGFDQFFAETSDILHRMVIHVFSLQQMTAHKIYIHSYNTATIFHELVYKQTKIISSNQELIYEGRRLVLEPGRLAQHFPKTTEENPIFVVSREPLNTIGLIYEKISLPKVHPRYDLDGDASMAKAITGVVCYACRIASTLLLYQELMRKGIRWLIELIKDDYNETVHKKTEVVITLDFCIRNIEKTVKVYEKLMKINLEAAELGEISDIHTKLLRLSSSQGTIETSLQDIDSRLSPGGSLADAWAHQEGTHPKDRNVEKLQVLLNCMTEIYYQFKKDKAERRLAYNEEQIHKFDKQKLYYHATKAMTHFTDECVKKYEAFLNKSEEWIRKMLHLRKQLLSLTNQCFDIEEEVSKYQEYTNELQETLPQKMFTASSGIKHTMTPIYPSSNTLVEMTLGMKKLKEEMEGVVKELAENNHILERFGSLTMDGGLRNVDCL
For `Cc1cc(-c2ccc3nc(Nc4cc(C(C)N5CCN(C(=O)CC(F)(F)F)CC5)ccn4)[nH]c3c2)n(C)n1` (single isomer, unassigned) [Example 89.02, 1-{4-[(1R or 1S)-1-(2-{[6-(1,3-dimethyl-1H-pyrazol-5-yl)-1H-benzimidazol-2-yl]amino}pyridin-4-yl)ethyl]piperazin-1-yl}-3,3,3-trifluoropropan-1-one], the IC50 (usually the concentration at which inhibition is half-maximal) is 450 nM.

Take `Cc1noc(-c2ccc3nc(Nc4cc(CN5CCN(C(=O)C6CCC6)CC5(C)C)ccn4)[nH]c3c2)n1` [Example 16.04.05, cyclobutyl{3,3-dimethyl-4-[(2-{[6-(3-methyl-1,2,4-oxadiazol-5-yl)-1H-benzimidazol-2-yl]amino}pyridin-4-yl)methyl]piperazin-1-yl}methanone]: the IC50 came to 491 nM.

For the compound `O=C(CC1CC1)N1CCN(Cc2ccnc(Nc3nc4ccc(-c5ccnc(C(F)(F)F)n5)cc4[nH]3)c2)CC1` [Example 27.03, 2-cyclopropyl-1-(4-{[2-({6-[2-(trifluoromethyl)pyrimidin-4-yl]-1H-benzimidazol-2-yl}amino)pyridin-4-yl]methyl}piperazin-1-yl)ethanone], the IC50 is 203 nM.

On to `Cc1nccc(-c2ccc3nc(Nc4cc(CN5CCN(C(=O)CC(F)(F)F)CC5)ccn4)[nH]c3c2)c1Cl` [Example 130.02, 1-{4-[(2-{[6-(3-chloro-2-methylpyridin-4-yl)-1H-benzimidazol-2-yl]amino}pyridin-4-yl)methyl]piperazin-1-yl}-3,3,3-trifluoropropan-1-one], for which the IC50 came out at 190 nM.

As to `Cc1nccc(-c2ccc3nc(Nc4cc(CN5CCN(C(=O)C6CC6)CC5)cc(C(F)(F)F)n4)[nH]c3c2)n1` [Example 24.03.01, cyclopropyl(4-{[2-{[6-(2-methylpyrimidin-4-yl)-1H-benzimidazol-2-yl]amino}-6-(trifluoromethyl)pyridin-4-yl]methyl}piperazin-1-yl)methanone], the 50% inhibitory concentration (IC50) stood at 478 nM.

In the case of `Cc1noc(-c2ccc3nc(Nc4cc(CN5CCN(C(=O)OC(C)(C)C)CC5)ccn4)[nH]c3c2)n1` [Example 16.01.01, tert-butyl 4-[(2-{[6-(3-methyl-1,2,4-oxadiazol-5-yl)-1H-benzimidazol-2-yl]amino}pyridin-4-yl)methyl]piperazine-1-carboxylate], the IC50 came out at 230 nM.

Turning to `CC(C)Oc1cncnc1-c1ccc2nc(Nc3cc(C(C)N4CCN(C(=O)C5CC5)CC4)ccn3)[nH]c2c1` (single isomer, unassigned) [Example 36.03, cyclopropyl(4-{(1R or 1S)-1-[2-({6-[5-(propan-2-yloxy)pyrimidin-4-yl]-1H-benzimidazol-2-yl}amino)pyridin-4-yl]ethyl}piperazin-1-yl)methanone], the IC50 turned out to be 2.13 nM.

Turning to `CC(C)(C)OC(=O)N1CCN(Cc2ccnc(Nc3nc4ccc(-c5cc(NC6CC6)ncn5)cc4[nH]3)c2)CC1` [Example 82.01, tert-butyl 4-{[2-({6-[6-(cyclopropylamino)pyrimidin-4-yl]-1H-benzimidazol-2-yl}amino)pyridin-4-yl]methyl}piperazine-1-carboxylate], the IC50 is 3.6 nM.

Turning to `Cc1noc(-c2ccc3nc(Nc4cc(CN5CCN(C(=O)CC6CC6)C[C@H]5C)ccn4)[nH]c3c2)n1` [Example 16.03.03, 2-cyclopropyl-1-{(3R)-3-methyl-4-[(2-{[6-(3-methyl-1,2,4-oxadiazol-5-yl)-1H-benzimidazol-2-yl]amino}pyridin-4-yl)methyl]piperazin-1-yl}ethanone], the IC50 stood at 67 nM.

Take `Cc1ncnc(-c2ccc3nc(Nc4cc(CN5CCN(C(=O)CC(F)(F)F)CC5)ccn4)[nH]c3c2)c1C` [Example 32.02, 1-{4-[(2-{[6-(5,6-dimethylpyrimidin-4-yl)-1H-benzimidazol-2-yl]amino}pyridin-4-yl)methyl]piperazin-1-yl}-3,3,3-trifluoropropan-1-one]: the half-inhibitory concentration (IC50) was found to be 1170 nM.

As for `CCOc1nccc(-c2ccc3nc(Nc4cc(CN5CCN(C(=O)C6CC6)CC5)ccn4)[nH]c3c2)n1` [Example 26.01.02, cyclopropyl{4-[(2-{[6-(2-ethoxypyrimidin-4-yl)-1H-benzimidazol-2-yl]amino}pyridin-4-yl)methyl]piperazin-1-yl}methanone], the IC50 stood at 8.58 nM.

With `CSc1ncc(-c2ccc3nc(Nc4cc(CN5CCN(C(=O)CC6CC6)CC5)ccn4)[nH]c3c2)cn1` [Example 45.05.02, 2-cyclopropyl-1-(4-{[2-({6-[2-(methylsulfanyl)pyrimidin-5-yl]-1H-benzimidazol-2-yl}amino)pyridin-4-yl]methyl}piperazin-1-yl)ethanone], the half-maximal inhibitory concentration (IC50) was found to be 1020 nM.

With `Cc1noc(-c2ccc3nc(Nc4cc(CN5CCN(c6ccc(F)c(F)c6)CC5)ccn4)[nH]c3c2)n1` [Example 101.21, N-(4-{[4-(3,4-difluorophenyl)piperazin-1-yl]methyl}pyridin-2-yl)-6-(3-methyl-1,2,4-oxadiazol-5-yl)-1H-benzimidazol-2-amine], the IC50 was more than 57000 nM.

As for `CC(c1ccnc(Nc2nc3ccc(-c4cc(N5CC(F)(F)C5)ncn4)cc3[nH]2)c1)N1CCN(C(=O)C2CC2)CC1` (single isomer, unassigned) [Example 116.02, cyclopropyl(4-{(1R or 1S)-1-[2-({6-[6-(3,3-difluoroazetidin-1-yl)pyrimidin-4-yl]-1H-benzimidazol-2-yl}amino)pyridin-4-yl]ethyl}piperazin-1-yl)methanone], the IC50 came to 0.76 nM.

As for `CC(c1ccnc(Nc2nc3ccc(-c4cnn(CC5CC5(F)F)c4)c(F)c3[nH]2)c1)N1CCN(C(=O)OC(C)(C)C)CC1` (single isomer, unassigned) [Example 86.01, tert-butyl 4-[(1R or 1S)-1-(2-{[6-(1-{[(1RS)-2,2-difluorocyclopropyl]methyl}-1H-pyrazol-4-yl)-7-fluoro-1H-benzimidazol-2-yl]amino}pyridin-4-yl)ethyl]piperazine-1-carboxylate], the IC50 turned out to be 11 nM.

For the compound `COc1cnccc1-c1ccc2nc(Nc3cc(CN4CCN(C(=O)C5CCC5)CC4)ccn3)[nH]c2c1` [Example 04.04, cyclobutyl{4-[(2-{[6-(3-methoxypyridin-4-yl)-1H-benzimidazol-2-yl]amino}pyridin-4-yl)methyl]piperazin-1-yl}methanone], the IC50 was 22.4 nM.

Turning to `CC(c1ccnc(Nc2nc3ccc(-c4cc(OCC(F)(F)C(F)(F)F)ncn4)cc3[nH]2)c1)N1CCN(C(=O)OC(C)(C)C)CC1` (single isomer, unassigned) [Example 166.01, tert-butyl 4-{(1R or 1S)-1-[2-({6-[6-(2,2,3,3,3-pentafluoropropoxy)pyrimidin-4-yl]-1H-benzimidazol-2-yl}amino)pyridin-4-yl]ethyl}piperazine-1-carboxylate], the IC50 was 300 nM.

Consider `CC(c1ccnc(Nc2nc3ccc(-c4ccncn4)cc3[nH]2)c1)N1CCN(C(=O)C2CCC2)CC1` (racemic) [Example 23.04.01, (rac)-cyclobutyl{4-[1-(2-{[6-(pyrimidin-4-yl)-1H-benzimidazol-2-yl]amino}pyridin-4-yl)ethyl]piperazin-1-yl}methanone], for which the IC50 was 3.44 nM.

On to `CN(CC1CC1)c1cc(-c2ccc3nc(Nc4cc(CN5CCN(C(=O)OC(C)(C)C)CC5)ccn4)[nH]c3c2)ncn1` [Example 141.01, tert-butyl 4-({2-[(6-{6-[(cyclopropylmethyl)(methyl)amino]pyrimidin-4-yl}-1H-benzimidazol-2-yl)amino]pyridin-4-yl}methyl)piperazin-1-carboxylate], for which the IC50 came out at 43 nM.

For the compound `CC(c1ccnc(Nc2nc3ccc(-c4cnn(CC5CC5(F)F)c4)cc3[nH]2)c1)N1CCN(C(=O)OC(C)(C)C)CC1` (single isomer, unassigned) [Example 55.01.02, tert-butyl 4-[(1R or 1S)-1-(2-{[6-(1-{[(1R or 1S)-2,2-difluorocyclopropyl]methyl}-1H-pyrazol-4-yl)-1H-benzimidazol-2-yl]amino}pyridin-4-yl)ethyl]piperazine-1-carboxylate], the IC50 was determined as 4.8 nM.

As to `O=C(C1CC1)N1CCN(Cc2ccnc(Nc3nc4ccc(-c5ncccn5)cc4[nH]3)c2)CC1` [Example 180.03, cyclopropyl{4-[(2-{[6-(pyrimidin-2-yl)-1H-benzimidazol-2-yl]amino}pyridin-4-yl)methyl]piperazin-1-yl}methanone], the IC50 came to 364 nM.

On to `O=C(CC(F)(F)F)N1CCN(Cc2ccnc(Nc3nc4ccc(-c5cc(NC6CC6)ncn5)cc4[nH]3)c2)CC1` [Example 151.02, 1-(4-{[2-({6-[6-(cyclopropylamino)pyrimidin-4-yl]-1H-benzimidazol-2-yl}amino)pyridin-4-yl]methyl}piperazin-1-yl)-3,3,3-trifluoropropan-1-one], for which the IC50 was determined as 2.1 nM.

As for `Cc1nccc(-c2ccc3nc(Nc4cc(C(C)N5CCN(C(=O)CC(F)(F)F)CC5)ccn4)[nH]c3c2)n1` (single isomer, unassigned) [Example 24.05.01.B, 3,3,3-trifluoro-1-{4-[(1S or 1R)-1-(2-{[6-(2-methylpyrimidin-4-yl)-1H-benzimidazol-2-yl]amino}pyridin-4-yl)ethyl]piperazin-1-yl}propan-1-one], the IC50 is 6.62 nM.

Regarding `COc1cncnc1-c1ccc2nc(Nc3cc(C(C)N4CCN(C(=O)C5CC5)CC4)ccn3)[nH]c2c1` (racemic) [Example 35.02.03, (rac)-cyclopropyl{4-[1-(2-{[6-(5-methoxypyrimidin-4-yl)-1H-benzimidazol-2-yl]amino}pyridin-4-yl)ethyl]piperazin-1-yl}methanone], the IC50 turned out to be 6.29 nM.

As to `Cn1cc(-c2ccc3nc(Nc4cc(CN5CCN(C(=O)CC(F)(F)F)CC5)ccn4)[nH]c3c2)cn1` [Example 37.01, 3,3,3-trifluoro-1-{4-[(2-{[6-(1-methyl-1H-pyrazol-4-yl)-1H-benzimidazol-2-yl]amino}pyridin-4-yl)methyl]piperazin-1-yl}propan-1-one], the IC50 turned out to be 55.3 nM.

As for `CSc1ncc(-c2ccc3nc(Nc4cc(CN5CCN(C(=O)CC(F)(F)F)CC5)ccn4)[nH]c3c2)cn1` [Example 45.05.01, 3,3,3-trifluoro-1-(4-{[2-({6-[2-(methylsulfanyl)pyrimidin-5-yl]-1H-benzimidazol-2-yl}amino)pyridin-4-yl]methyl}piperazin-1-yl)propan-1-one], the IC50 turned out to be 1430 nM.
